# Assay results reported in US4997828A, “Method of weight control by low level administration of cobalt protoporphyrin or cobalt mesoporphyrin” (The Rockefeller University, priority 1989, dated 1991).
# “Also recorded” adds a separate entry of the source.
# Assays:
# [1] = Weight control and P/F ratio of animals, general statements; format: in vivo; details: for Improved P/F ratio, lowest dosage / Weight control activity, lowest dosage: decreasing dosage
# [2] = system: endocrine system; details: cited from earlier work; for Endocrine suppression, weight control and P/F ratio: levels of administration described in the copending application; for Production of gonadal hormones / Production of thyroid hormones: parenteral administration, copending application
# [3] = system: endocrine system; experiment: Endocrine suppression activity in animals, general statements; format: in vivo
# [4] = system: Ethylmorphine demethylase; experiment: Hepatic ethylmorphine demethylase activity of treated rats (Example 1); format: in vivo, Sprague-Dawley rat; details: Day 71; 10 serial doses of CoPP 1 μmol/kg b.w. s.c.; n = 6; control 0.43 ± 0.05
# Experimental: (§1) Adult male Sprague-Dawley rats (≈250 g) were injected subcutaneously with CoPP 1 μmol/kg b.w. (12 rats) or vehicle (12 rats) on day 0. Thereafter, injections (Vertical arrows in FIG. 1) were repeated weekly until 10 doses had been given. Animals were allowed Purina rat chow and water ad libitum and animal weights were recorded thrice weekly; means are presented in FIG. 1 ( is control and treated animals). On day 71, 6 control rats and 6 CoPP-treated rats were sacrificed, blood collected for hormone determinations and hepatic mitochondrial and microsomal fractions prepared for biochemical assays. These procedures were repeated at day 124 for the remainder of the animals.
# (§2) The effects of 10 serial doses of CoPP 1 μmol/kg b.w. on weight,
# (§3) *n = 12; for all other parameters, n = 6 animals per treatment.
# [5] = Body weight of adult male rats after intraventricular injection, dose response (Example 3); format: in vivo, rat
# Experimental: Adult male rats were anesthetized during stereotaxic placement of chronic indwelling catheters into the third ventricle of the brain. After 3-4 days post-operative recovery, animals were injected intraventricularly (i/vt) with small volumes (<10μl) of vehicle or CoPP 0.1, 0.2 (o) or 0.4 μmol/kg b.w.
# [6] = system: testosterone; experiment: Testosterone concentration of adult male rats treated intraventricularly (Example 4); format: in vivo, rat; details: i/vt CoPP 0.4 μmol/kg b.w.; 5 animals; FIG. 4
# [7] = system: Aryl hydrocarbon hydroxylase; experiment: Hepatic aryl hydrocarbon hydroxylase activity of treated rats (Example 1); format: in vivo, Sprague-Dawley rat; details: Day 71; 10 serial doses of CoPP 1 μmol/kg b.w. s.c.; n = 6; control 275 ± 24
# Experimental: as §1, §2, §3
# [8] = Body weight of adult male Beagle dogs after weekly intramuscular injections (Example 2); format: in vivo, Beagle dog
# Experimental: (§4) Adult male Beagle dogs (≈1 year) were housed in single runs with free access to Purina dog chow and water. On day 0, 3 animals were injected intramuscularly in the upper posterolateral aspect of the hindlimb with CoPP 2.5 μmol/kg b.w., and 3 animals with control vehicle. Injections (Vertical arrows in FIG. 2) were repeated weekly, in alternating hindlimbs, until a: total of 9 doses had been given. Animal weights were recorded thrice weekly and means are presented in FIG. 2 ( is control and is treated animals).
# [9] = system: Heme oxygenase; experiment: Hepatic heme oxygenase activity of treated rats (Example 1); format: in vivo, Sprague-Dawley rat; details: Day 71; 10 serial doses of CoPP 1 μmol/kg b.w. s.c.; n = 6; control 1.85 ± 0.15
# Experimental: as §1, §2, §3
# [10] = system: Cytochrome P-450; experiment: Hepatic cytochrome P-450 content of treated rats (Example 1); format: in vivo, Sprague-Dawley rat; details: Day 71; 10 serial doses of CoPP 1 μmol/kg b.w. s.c.; n = 6; control 1.06 ± 0.23
# Experimental: as §1, §2, §3
# [11] = system: testosterone; experiment: Serum testosterone of male Beagle dogs after weekly intramuscular injections (Example 2); format: in vivo, Beagle dog; details: for Testosterone (serum): n = 3
# Experimental: as §4
# The effects of 9 serial doses of CoPP 2.5 μmol/kg b.w. on serum
# testosterone concentrations in male Beagle dogs.
# [12] = system: hormone concentrations; experiment: Hormone concentrations of treated rats, overall statement (Example 1); format: in vivo, Sprague-Dawley rat
# Experimental: as §1
# [13] = system: 7-Ethoxycoumarin de-ethylase; experiment: Hepatic 7-ethoxycoumarin de-ethylase activity of treated rats (Example 1); format: in vivo, Sprague-Dawley rat; details: Day 71; 10 serial doses of CoPP 1 μmol/kg b.w. s.c.; n = 6; control 0.41 ± 0.04
# Experimental: as §1, §2, §3
# [14] = system: Aniline hydroxylase; experiment: Hepatic aniline hydroxylase activity of treated rats (Example 1); format: in vivo, Sprague-Dawley rat; details: Day 71; 10 serial doses of CoPP 1 μmol/kg b.w. s.c.; n = 6; control 59 ± 3.48
# Experimental: as §1, §2, §3
# [15] = Body weight and naso-anal length of adult male rats after weekly subcutaneous injections (Example 1); format: in vivo, Sprague-Dawley rat
# Experimental: as §1, §2, §3
# **As calculated by Student's Ttest. The only significant changes are in […]
# [16] = system: Insulin; experiment: Insulin concentration in blood of subcutaneously treated rats (Example 1); format: in vivo, Sprague-Dawley rat; details: Day 124; 10 serial doses of CoPP 1 μmol/kg b.w. s.c.; n = 6; control 156 ± 47.6
# Experimental: as §1, §2, §3
# [17] = system: δ-Aminolevulinic acid synthase; experiment: Hepatic δ-aminolevulinic acid synthase activity of treated rats (Example 1); format: in vivo, Sprague-Dawley rat; details: Day 71; 10 serial doses of CoPP 1 μmol/kg b.w. s.c.; n = 6; control 0.29 ± 0.02
# Experimental: as §1, §2, §3
# [18] = system: Testosterone; experiment: Testosterone concentration in blood of subcutaneously treated rats (Example 1); format: in vivo, Sprague-Dawley rat; details: 10 serial doses of CoPP 1 μmol/kg b.w. s.c., n = 6
# Experimental: as §1, §2, §3
# [19] = Prolonged body weight loss after single intraventricular treatment (Example 5); format: in vivo, rat; details: single i/vt CoPP 0.2 or 0.4 μmol/kg b.w.; n=4; FIG. 5
# Source text: The prolonged loss of body weight following single i/vt treatments with CoPP 0.2 or 0.4 μmol/kg b.w. are contrasted with that of vehicle-treated rats in FIG. 5 (n=4).
# [20] = system: cytochrome P-450; details: administration to animals; lowest level 25 μm/kg body weight; cited from earlier work
# [21] = system: heme pathway and cytochrome P-450-dependent enzyme activities; experiment: Heme pathway and cytochrome P-450-dependent enzyme activities of treated rats, overall statement (Example 1); format: in vivo, Sprague-Dawley rat; details: CoPP 1 μmol/kg b.w. s.c. weekly, 10 doses
# Experimental: as §1
# [22] = system: LH; experiment: LH concentration in blood of subcutaneously treated rats (Example 1); format: in vivo, Sprague-Dawley rat; details: Day 124; 10 serial doses of CoPP 1 μmol/kg b.w. s.c.; n = 6; control 21.1 ± 3.29
# Experimental: as §1, §2, §3
# [23] = Body weight of adult male rats treated intraventricularly (Example 4); format: in vivo, rat; details: i/vt CoPP 0.4 μmol/kg b.w.; 5 animals; FIG. 4
# Source text: FIG. 4 depicts the means ±SEM of the body weights of 5 adult male rats treated i/vt with vehicle and 5 animals with CoPP 0.4 μmol/kg b.w. ( , lower panel).
# [24] = similar administration to FIGS. 1-5
# [25] = at about 10 μm/kg b.w., say 9.8 μm/kg b.w.
# [26] = preferred range 0.1 to 0.3 μm/kg b.w.
# [27] = CoPP 1 μmol/kg b.w. s.c. weekly, 10 doses
structure (smiles),measurement,setting,value
"CCC1=C(C)c2cc3[n-]c(cc4[n-]c(cc5nc(cc1n2)C(C)=C5CC)c(C)c4CCC(=O)[O-])c(CCC(=O)[O-])c3C.[Co+2].[H+].[H+] [CoMP, cobalt mesoporphyrin]","Improved P/F ratio, lowest dosage",[1],continues even down to as low as 0.1 μm/kg b.w.
same,"Weight control activity, lowest dosage",[1],continues even down to as low as 0.1 μm/kg b.w.
same,P/F ratio,[1]; [24],improved P/F ratios
same,Results relative to those illustrated in the figures for CoPP,[1]; [24],Comparable results
same,"Endocrine suppression, weight control and P/F ratio",[2],"endocrine suppression, weight control and improved P/F ratio all take place simultaneously"
same,Production of gonadal hormones,[2],limit the production of gonadal hormones
same,Production of thyroid hormones,[2],suppress the production of thyroid hormones
same,Endocrine suppression activity,[3]; at 4 μm/kg b.w.,effectively disappeared
same,Endocrine suppression activity,[3]; [25],negligible
same,Endocrine suppression activity,[3]; dependence on dosage,declines as the dosage is decreased
same,Endocrine suppression activity,[3]; [26],substantially no endocrine suppression activity
"C=CC1=C(C)c2cc3[n-]c(cc4nc(cc5[n-]c(cc1n2)c(C)c5CCC(=O)[O-])C(CCC(=O)[O-])=C4C)c(C)c3C=C.[Co+2].[H+].[H+] [CoPP, cobalt protoporphyrin]",Ethylmorphine demethylase,[4],0.49 ± 0.04 μmol form/mg prot/hr
same,Weight loss (FIG. 3),"[5]; adult male rats, intraventricular administration, Example 3",weight loss achieved
same,"Effects on body weight, dose dependence","[5]; i/vt CoPP 0.1, 0.2 or 0.4 μmol/kg b.w., 4-6 animals per group",dose responsive
same,i/vt dosage relative to s/c dosage required to elicit the same changes (fold less),[5]; intraventricular versus s/c administration,50-100 fold less
same,Testosterone concentrations vs vehicle-treated rats,[6],without significant changes in testosterone concentration; also recorded: not significantly different
same,Aryl hydrocarbon hydroxylase,[7],291 ± 28 pmol 80HBP/mg prot/hr
same,"Improved P/F ratio, lowest dosage",[1],continues even down to as low as 0.1 μm/kg b.w.
same,"Weight control activity, lowest dosage",[1],continues even down to as low as 0.1 μm/kg b.w.
same,P/F ratio,[1]; [24],improved P/F ratios
same,Body weight change (FIG. 2),"[8]; adult male dogs, Example 2",decrease in body weight
same,Mean weights,"[8]; after first 3 weeks, CoPP 2.5 μmol/kg b.w. i.m. weekly",progressively decreased thereafter to a nadir at day 74
same,Recovery of body weight,"[8]; by day 84, CoPP 2.5 μmol/kg b.w. i.m. weekly, 9 doses",returned to their pre-treatment weights
same,Mean weights,"[8]; first 3 weeks of treatment, CoPP 2.5 μmol/kg b.w. i.m. weekly",unchanged
same,Loss of body weight,"[8]; nadir at day 74, CoPP 2.5 μmol/kg b.w. i.m. weekly, 9 doses",approximately 25 % of their body weight
same,Heme oxygenase,[9],2.08 ± 0.21 nmol bilirubin/mg prot/hr
same,Cytochrome P-450,[10],0.70 ± 0.12 nmol/mg protein
same,"Endocrine suppression, weight control and P/F ratio",[2],"endocrine suppression, weight control and improved P/F ratio all take place simultaneously"
same,Production of gonadal hormones,[2],limit the production of gonadal hormones
same,Production of thyroid hormones,[2],suppress the production of thyroid hormones
same,Testosterone (serum),"[11]; Day 0 (before start of the experiment), CoPP 2.5 μmol/kg b.w. group, control 1.82 ± 0.65",2.03 ± 0.57 ng/mL
same,Testosterone (serum),"[11]; Day 62, 9 serial doses of CoPP 2.5 μmol/kg b.w. i.m. weekly, control 1.73 ± 0.52",2.15 ± 1.52 ng/mL
same,Testosterone (serum),"[11]; Day 112, 9 serial doses of CoPP 2.5 μmol/kg b.w. i.m. weekly, control 1.67 ± 0.03",1.92 ± 0.83 ng/mL
same,Testosterone level change (FIG. 2 with Table II),"[11]; adult male dogs, Example 2",no decrease in testosterone levels
same,Effect on testosterone concentrations,"[11]; days 62 and 112, CoPP 2.5 μmol/kg b.w. i.m.",no effect
same,Difference in hormone concentrations vs control,[12]; [27],no significant differences
same,Hormone concentration change (FIG. 1 with Table I),"[12]; adult male rats, Example 1",without decrease in hormone concentration
same,7-Ethoxycoumarin de-ethylase,[13],0.53 ± 0.03 μmol/mg prot/hr
same,Endocrine suppression activity,[3]; at 4 μm/kg b.w.,effectively disappeared
same,Endocrine suppression activity,[3]; [25],negligible
same,Endocrine suppression activity,[3]; dependence on dosage,declines as the dosage is decreased
same,Endocrine suppression activity,[3]; [26],substantially no endocrine suppression activity
same,Aniline hydroxylase,[14],74 ± 4.62 nmol p-aminop./mg prot/hr
same,Difference in weights of control and CoPP-treated rats,[15]; [27],highly significant
same,Body weight,"[15]; Day 71, 10 serial doses of CoPP 1 μmol/kg b.w. s.c. weekly, n = 12, control 568 ± 16",442 ± 5 g
same,Body weight,"[15]; Day 124, 10 serial doses of CoPP 1 μmol/kg b.w. s.c., n = 6, control 633 ± 39",541 ± 12 g
same,Body weight change (FIG. 1),"[15]; adult male rats, Example 1",decrease in body weight
same,Insulin,[16],191 ± 43.6 μU/ml
same,δ-Aminolevulinic acid synthase,[17],0.30 ± 0.01 μmol ALA/mg prot/90'
same,Testosterone,"[18]; Day 71, control 1.96 ± 0.29",1.72 ± 0.23 ng/mL
same,Testosterone,"[18]; Day 124, control 2.64 ± 0.25",3.59 ± 0.90 ng/mL
same,Loss of body weight after single i/vt treatment,[19],prolonged weight loss; also recorded: prompt decrease in weight
same,Weight differential between treated and untreated animals,[19],maintained for the duration of the treatment
same,Cytochrome P-450 content of the liver,[20],deplete the cytochrome P-450 content of the liver
same,Difference in heme pathway and cytochrome P-450-dependent enzyme activities vs control,[21],no significant differences
same,LH,[22],24.2 ± 6.14 ng/mL
same,Weight loss,[23],typical weight loss
